Patent US6696267B2, “Methods and compositions for screening Icrac modulators” (Warner-Lambert Company, priority 2000, dated 2004)
Like-named read-outs stand apart in the source and are kept apart here.

What was measured:
[1] = system: NFAT-driven β-lactamase synthesis (Icrac activation) in NFAT-β-lactamase Jurkat cells; assay: NFAT-β-lactamase gene-reporter assay in Jurkat cells (Jk-NFAT-βlac), CCF2-AM ratio 460/535; format: cell-based; settings: for Effect on TG-driven β-lactamase synthesis / NFAT activation / Effect on β-lactamase synthesis at 10 μM: Jurkat cells; for Effect on TG-driven β-lactamase synthesis / NFAT activation: with TG 1 μM for 4 h (FIG. 4); for Effect on β-lactamase synthesis at 10 μM: TG 1 μM (FIG. 4)
Description: (§1) Jurkat cell lines (Jk-NFAT-βlac) stably transfected with plasmid containing 3×NFAT-β-lactamase reporter gene (for NFAT promoter sequence see (19)), and plasmid containing CMV-β-lactamase (Jk-CMV-βlac), where CMV is a constitutively active promoter as well as HEK cells (HEK-CRE-βlac) with 3×CRE-β-lactamase (the CRE promoter contains CRE box sequence of CGTCA (20)) were obtained from Aurora Biosciences Corp (San Diego, Calif.).
Jurkat cells were grown in RPMI 1640 medium supplemented with 10% foetal bovine serum, 2 mM L-glutamine, 1 mM NEAA, 1 mM Na pyruvate, 25 mM HEPES, pH 7.4, gentamicin 100 μg/ml. HEK-293 cells were grown in MEM glutamax, supplemented with 10% FBS, gentamycin 100 μg/ml, HEPES 20 mM. Medium for stable cell propagation contained 250 μg/ml Zeocin (Jk-NFAT-βlac) or 800 μg/ml Geneticin (Jk-CMV-βlac, HEK-CRE-βlac). […] Cells were then loaded, for 1 h in the dark at room temperature, with 12 μM CCF2-AM (13). Fluorescence was monitored with a Fluostar (BMG, Germany) fluorimeter. Excitation was at 405 nm, and emission record at 460 nm and 535 nm. The ratio (460 nm/535 nm) of fluorescence unit (F.U.) was estimated after correction for background (medium without cells). HEK-CRE-βlac were stimulated using Forskolin 10 μM in the medium mentioned above (4×10^4 cells/well). All reagents were added with the stimulator agent (e.g. TG or forskolin), unless noticed.

[2] = system: NFAT-driven β-lactamase synthesis in p815 mastocyte cells; assay: NFAT-β-lactamase gene-reporter assay in p815 mastocytes (p815-NFAT-βlac); format: cell-based; settings: mastocytes (not shown)
Description: The mastocyte monoclonal cell line (p815-NFAT-βlac) stably transfected with plasmid containing 3×NFAT-β-lactamase were obtained as follow. Cells (1.10^7/ml) were electroporated in a 0.4 cm gap cuvette using a BioRad Gene Pulser II at 960 μF and 300V, using 20 μg of pcDNAIII 3×NFAT-β-lactamase Zeomycin expression vector (from Aurora Biosciences Corp; San Diego, Calif.) in DMEM medium. After 48 h, electroporated p815 cells were selected for 2 weeks using 250 μg/ml Zeocin (InVitrogen, Calif.). A pool of TG responding cells were first sorted, using FACS Vantage (Becton Dickinson, Calif.), and a week after, 200 cells were monosorted (one cell per well) from this pool, 15 clones grown up, and were tested as follow.
Jurkat cells were grown in RPMI 1640 medium supplemented with 10% foetal bovine serum, 2 mM L-glutamine, 1 mM NEAA, 1 mM Na pyruvate, 25 mM HEPES, pH 7.4, gentamicin 100 μg/ml. HEK-293 cells were grown in MEM glutamax, supplemented with 10% FBS, gentamycin 100 μg/ml, HEPES 20 mM. Medium for stable cell propagation contained 250 μg/ml Zeocin (Jk-NFAT-βlac) or 800 μg/ml Geneticin (Jk-CMV-βlac, HEK-CRE-βlac). […] Fluorescence was monitored with a Fluostar (BMG, Germany) fluorimeter. […] The ratio (460 nm/535 nm) of fluorescence unit (F.U.) was estimated after correction for background (medium without cells). […]

[3] = system: NFAT-β-lactamase Jurkat cells; assay: CCF2-AM loading capacity of NFAT-β-lactamase Jurkat cells (F.U. at 535 nm); settings: for Toxic effects (weak loading): 50 μM, data not shown
β-lactamase = β-lactamase inhibitor; cited from earlier work
Icrac channel = assay: Optical measurement of intracellular [Ca++] with Fura-2; format: cell-based; settings: Fura-2 as probe
Description: Loading with 2 μM fura-2-AM was performed with a 3×10^6 cells suspension for 30 min at 37° C., in Hanks buffer saline solution (HBSS). Cells were washed and resuspended twice to minimize extracellular dye. Fura-2 fluorescence measurements were carried out in a water-jacketed cuvette (room temperature) with continuous stirring, containing 1 ml of the cells suspension. Fluorescence was monitored with a Shimadzu spectrofluorophotometer by continuously (1 sec intervals) collecting excitation signals at 340 nm and 380 nm and emission signal at 510 nm. Maximal and minimal fluorescence were obtained by adding ionomycin 25 μM and EGTA (20 mM) respectively and sequentially at the end of the experiment. The ratio of excitation signals at 340 nm and 380 nm was used to calculate [Ca^++] as previously described (21) assuming a Kd of 155 nM.

[4] = system: constitutive β-lactamase (CMV-driven) in Jurkat cells; assay: Constitutive CMV-β-lactamase Jurkat cell assay (Jk-CMV-βlac); format: cell-based; settings: Jk-CMV-βlac cells (FIG. 6, DMSO 3%)
Description: as §1
Jurkat cells were grown in RPMI 1640 medium supplemented with 10% foetal bovine serum, 2 mM L-glutamine, 1 mM NEAA, 1 mM Na pyruvate, 25 mM HEPES, pH 7.4, gentamicin 100 μg/ml. HEK-293 cells were grown in MEM glutamax, supplemented with 10% FBS, gentamycin 100 μg/ml, HEPES 20 mM. Medium for stable cell propagation contained 250 μg/ml Zeocin (Jk-NFAT-βlac) or 800 μg/ml Geneticin (Jk-CMV-βlac, HEK-CRE-βlac). In a 96-well plate, 1 μM Thapsigargin (TG) was used to stimulate NFAT Jurkat cells (10^5 per well), for 4 h at 37° C., 5% CO2, in Dulbecco's Modified Essential Medium ([Ca^++] 1.8 mM) 10% FBS, gentamycin 100 μg/ml. Cells were then loaded, for 1 h in the dark at room temperature, with 12 μM CCF2-AM (13). Fluorescence was monitored with a Fluostar (BMG, Germany) fluorimeter. Excitation was at 405 nm, and emission record at 460 nm and 535 nm. The ratio (460 nm/535 nm) of fluorescence unit (F.U.) was estimated after correction for background (medium without cells). […]

With `C=C1[C@@H](O)[C@@H]2O[C@]3(CC[C@H](/C=C/[C@@H](C)[C@@H]4CC(C)=C[C@@]5(O[C@H](C[C@@](C)(O)C(=O)O)CC[C@H]5O)O4)O3)CC[C@H]2O[C@@H]1[C@@H](O)C[C@H](C)[C@H]1O[C@@]2(CCCCO2)CC[C@H]1C` [Okadaic acid, okadaic acid] the “Effect on TG-driven β-lactamase synthesis / NFAT activation” value [1] was “blocked the β-lactamase synthesis” and the “Effect on β-lactamase synthesis” value [2] was “blocked the β-lactamase synthesis”.

With `COc1ccc(CCN(C)CCCC(C#N)(c2ccc(OC)c(OC)c2)C(C)C)cc1OC` (stereo not drawn) [Verapamil] the “Effect on β-lactamase synthesis at 10 μM” value [1] was “did not have any effect” and the “Toxic effects (weak loading)” value [3] was “Toxic effects were detected”.

With `C[C@@H]1C[C@@H]([C@H](O)CC2CC(=O)NC(=O)C2)C(=O)[C@@H](C)C1` [CHX, cycloheximide] the “Effect on β-lactamase synthesis when added after TG stimulation” value ([1]; added as long as 4 hrs after TG stimulation) was “inhibitory effect”.

In the case of `COc1ccc([C@@H]2Sc3ccccc3N(CCN(C)C)C(=O)[C@@H]2OC(C)=O)cc1` [Diltiazem], the “Effect on β-lactamase synthesis at 10 μM” value [1] is reported as “did not have any effect” and the “Toxic effects (weak loading)” value [3] is reported as “Toxic effects were detected”.

For `C[C@]1(Cn2ccnn2)[C@H](C(=O)O)N2C(=O)C[C@H]2S1(=O)=O` [Tazobactam], the IC50 ([1]; Homo sapiens, Jurkat, NFAT-driven (FIG. 4), read-out: IC50, block of NFAT-driven β-lactamase) is given as 2000 nM and the Ki (β-lactamase) is given as 700 nM.

For `C[S+](C)[O-]` [DMSO, dimethyl sulfoxide], the “Interference with the assay” value ([1]; 0.5% final concentration) was “did not hinder the assay”, the “Effect on β-lactamase synthesis when added after TG activation” value ([1]; added 3 hrs after TG activation) was “did not block β-lactamase synthesis” and the “F.U. at 535 nm, % control” value ([3]; DMSO 0.1%) was 99.2%. The “F.U. at 535 nm, % control” value ([3]; DMSO 1%) was 96.1%, the “F.U. at 535 nm, % control” value ([3]; DMSO 2%) was 97% and the “F.U. at 535 nm, % control” value ([3]; DMSO 4%) was 107.7%. For the same molecule, the “F.U. at 535 nm, % control” value ([3]; DMSO 5%) was 110.1%, the “Effect on the Icrac channel, [Ca++]i determination” value (Icrac channel) was “no effect” and the “Effect on constitutive β-lactamase synthesis” value [4] was “no effect”.

For `CCCCCCCCCCCCCC(=O)O[C@@H]1[C@@H](C)[C@@]2(O)[C@@H](C=C(CO)C[C@]3(O)C(=O)C(C)=C[C@@H]23)[C@@H]2C(C)(C)[C@]12OC(C)=O` [PMA, phorbol myristate acetate], the “Ratio (460 nm/535 nm)” value [1] was 0.012 ± 0.008 and the “% total (TG 1 μM)” value ([1]; PMA 10 nM) was 2%.

In the case of phytohemaggutinin [PHA], the “% total (TG 1 μM)” value ([1]; PHA 1 μg/ml) is reported as 41%, the “Ratio (460 nm/535 nm)” value ([1]; PHA 1 μg/ml) is reported as 0.280 ± 0.116 and the “% total (TG 1 μM)” value ([1]; PHA 10 μg/ml) is reported as 84%. The “Ratio (460 nm/535 nm)” value ([1]; PHA 10 μg/ml) was 0.578 ± 0.040.

With `CC(=O)C1=C(O)[C@@H]2[C@H]3c4c[nH]c5cccc(c45)C[C@H]3C(C)(C)N2C1=O` [CPA, cyclopiazonic acid] the “Ratio (460 nm/535 nm)” value [1] was 0.407 ± 0.041 and the “% total (TG 1 μM)” value ([1]; CPA 10 μM) was 59%.

For calyculin, the “Effect on TG-driven β-lactamase synthesis / NFAT activation” value [1] was “blocked the NFAT activation in a dose dependent manner”.

In the case of `C/C=C(/C)C(=O)O[C@H]1C(C)=C2[C@H]([C@@H]1OC(=O)CCCCCCC)[C@@](C)(OC(C)=O)C[C@H](OC(=O)CCC)[C@@]1(O)[C@H]2OC(=O)[C@@]1(C)O` [TG, thapsigargin], the “β-lactamase synthesis versus TG concentration” value ([1]; 5-10 μM TG) is reported as “decrease was observed”, the “% total (TG 1 μM)” value ([1]; TG 1 μM) is reported as 100% and the “Ratio (460 nm/535 nm)” value ([1]; TG 1 μM) is reported as 0.688 ± 0.035. For the same molecule, the “Relative potency as Icrac activator (in words)” value ([1]; Table 1) was “most active Icrac activator”, the “β-lactamase synthesis versus TG concentration” value ([1]; concentrations higher than 1 μM (FIG. 2C)) was “did not further increase the β-lactamase synthesis” and the “β-lactamase activity with thapsigargin alone” value ([1]; conventional conditions, 0.4 mM [Ca++] (FIG. 2B)) was “weak”.
